# Laboratory results taken from patent US20240197743A1, “WEE1 COMPOUND FOR TREATING UTERINE SEROUS CARCINOMA” (Recurium IP Holdings, LLC, priority 2021, published 2024).
# Key:
# [1] = system: multiple cell lines and xenograft models; assay: in vitro antitumor activity in multiple cell lines and xenograft models; type: cell-based
# [2] = system: subjects with uterine serous carcinoma (USC); assay: ZN-c3-001 (NCT04158336) open label, multicenter, Phase I dose escalation and expansion study; subjects with USC at doses ≥300 mg QD; type: in vivo, human; details: for Spleen: baseline 21 mm; for Peritoneum: baseline 17.8 mm
# Method: ZN-c3-001 (NCT04158336) is an open label, multicenter, Phase I dose escalation and expansion study evaluating the safety and clinical activity of ZN-c3 in subjects with advanced or metastatic solid tumors, refractory to standard therapy or for whom no standard therapy is available. Oral, daily ZN-c3 dosing was escalated from 25 mg to 450 mg once daily (QD), with a recommended phase 2 dose of 300 mg QD. Here we report preliminary safety and efficacy results for subjects with USC who received ZN-c3 at doses ≥300 mg QD.
# [3] = subject #1, Follow-up 1 (February 2021)
# [4] = subject #1, Follow-up 2 (April 2021)
# [5] = subject #1, Follow-up 3 (June 2021)
# [6] = subject #2, Follow-up 1 (March 2021)
# [7] = subject #2, Follow-up 2 (April 2021)
# [8] = subject #2, Follow-up 2 (April 2021), baseline 15 mm
# [9] = subject #2, Follow-up 3 (June 2021)
# [10] = subject #2, Follow-up 3 (June 2021), baseline 15 mm
# [11] = subject #2, Follow-up 4 (July 2021)
# [12] = subject #2, Follow-up 4 (July 2021), baseline 15 mm
# [13] = subject #2, Follow-up 5 (August 2021)
# [14] = subject #2, Follow-up 5 (August 2021), baseline 15 mm
# [15] = subject #3, Follow-up 1 (May 2021)
# [16] = subject #3, Follow-up 2 (July 2021)
# [17] = subject #3, Follow-up 3 (August 2021)
# [18] = subject #3, Follow-up 4 (September 2021)
# [19] = subject #3, Follow-up 5 (November 2021)
compound,measurement,setting,value
"C=CCn1c(=O)c2cnc(Nc3ccc(N4CCN(C)CC4)cc3)nc2n1-c1ccc2c(n1)[C@@](O)(CC)CC2 [ZN-c3, (R)-2-allyl-1-(7-ethyl-7-hydroxy-6,7-dihydro-5H-cyclopenta[b]pyridin-2-yl)-6-((4-(4-methylpiperazin-1-yl)phenyl)amino)-1,2-dihydro-3H-pyrazolo[3,4-d]pyrimidin-3-one]",antitumor activity,[1],significant in vitro antitumor activity
same,progressive disease as best overall response,"[2]; 1 of 11 evaluable USC subjects, ≥300 mg QD",9.1%
same,confirmed partial response as best overall response,"[2]; 3 of 11 evaluable USC subjects, ≥300 mg QD",27.3%
same,stable disease as best overall response,"[2]; 7 of 11 evaluable USC subjects, ≥300 mg QD",63.6%
same,"Disease control rate (complete response, partial response, and stable disease)","[2]; 11 evaluable USC subjects, ≥300 mg QD",90.9%
same,Grade ≥3 TRAEs occurring in ≥2 subjects,"[2]; 14 USC subjects, ≥300 mg QD",anemia and thrombocytopenia
same,"TRAEs grades 1-4 occurring in ≥3 subjects, by decreasing frequency","[2]; 14 USC subjects, ≥300 mg QD","nausea, vomiting, diarrhea, fatigue, decreased appetite, dehydration, and anemia"
same,subjects reporting at least one treatment-related adverse event (TRAE),"[2]; 14 USC subjects, ≥300 mg QD",12 of 14
same,"subjects with each Grade ≥3 hematologic event (anemia, thrombocytopenia)","[2]; 14 USC subjects, ≥300 mg QD",2 subjects each
same,safety and tolerability,"[2]; single agent, oral doses ≥300 mg QD",safe and well-tolerated
same,peritoneum imaging result (FIG. 1),"[2]; subject #1, 2nd restaging (April 2021) vs baseline (November 2020)",confirmed partial response
same,best response,"[2]; subject #1, start 350 mg QD",Confirmed PR
same,reduction overall,"[2]; subject #1, start 350 mg QD",49%
same,time on the study drug until radiologic disease progression,"[2]; subject #1, start 350 mg QD",199 days
same,Target Lesions,"[2]; subject #1, start 350 mg QD, Follow-up 1 (February 2021), baseline 24 mm",15 mm
same,"Tumor marker CA-125, minimum","[2]; subject #1, start 350 mg QD, after ~3 months of treatment, baseline 36 U/mL",12 U/mL
same,New Lesions,[2]; [3],No
same,Percentage of overall tumor reduction,[2]; [3],−48.9%
same,Tumor Response by RECIST 1.1,[2]; [3],Partial
same,Spleen,[2]; [3],8 mm
same,Target Lesions Sum,"[2]; subject #1, Follow-up 1 (February 2021), baseline 45 mm",23 mm
same,New Lesions,[2]; [4],No
same,Percentage of overall tumor reduction,[2]; [4],−48.9%
same,Tumor Response by RECIST 1.1,[2]; [4],Partial
same,Spleen,[2]; [4],7 mm
same,Target Lesions,"[2]; subject #1, Follow-up 2 (April 2021), baseline 24 mm",16 mm
same,Target Lesions Sum,"[2]; subject #1, Follow-up 2 (April 2021), baseline 45 mm",23 mm
same,New Lesions,[2]; [5],No
same,Percentage of overall tumor reduction,[2]; [5],−48.9%
same,Tumor Response by RECIST 1.1,[2]; [5],Progressive
same,Spleen,[2]; [5],7 mm
same,Target Lesions,"[2]; subject #1, Follow-up 3 (June 2021), baseline 24 mm",16 mm
same,Target Lesions Sum,"[2]; subject #1, Follow-up 3 (June 2021), baseline 45 mm",23 mm
same,peritoneum imaging result (FIG. 2),"[2]; subject #2, 1st restaging (March 2021) vs baseline (January 2021)",partial response
same,best response,"[2]; subject #2, start 300 mg QD",Confirmed PR
same,reduction overall,"[2]; subject #2, start 300 mg QD",43%
same,time on the study drug until radiologic disease progression,"[2]; subject #2, start 300 mg QD",230 days
same,Target Lesions,"[2]; subject #2, start 300 mg QD, Follow-up 1 (March 2021), baseline 15 mm",06 mm
same,Tumor marker CA-125,"[2]; subject #2, start 300 mg QD, after 2 months of treatment, baseline 440 U/mL",< 50 U/mL
same,New Lesions,[2]; [6],No
same,Percentage of overall tumor reduction,[2]; [6],−43%
same,Tumor Response by RECIST 1.1,[2]; [6],Partial Response
same,Lymph Node,"[2]; subject #2, Follow-up 1 (March 2021), baseline 15 mm",11 mm
same,Target Lesions Sum,"[2]; subject #2, Follow-up 1 (March 2021), baseline 30 mm",17 mm
same,New Lesions,[2]; [7],No
same,Percentage of overall tumor reduction,[2]; [7],−43%
same,Tumor Response by RECIST 1.1,[2]; [7],Partial Response
same,Lymph Node,[2]; [8],10 mm
same,Target Lesions,[2]; [8],07 mm
same,Target Lesions Sum,"[2]; subject #2, Follow-up 2 (April 2021), baseline 30 mm",17 mm
same,New Lesions,[2]; [9],No
same,"Percentage of overall tumor reduction, from baseline",[2]; [9],−40% from baseline
same,"Percentage of overall tumor reduction, from nadir",[2]; [9],+6% from nadir
same,Tumor Response by RECIST 1.1,[2]; [9],Partial Response
same,Lymph Node,[2]; [10],10 mm
same,Target Lesions,[2]; [10],8 mm
same,Target Lesions Sum,"[2]; subject #2, Follow-up 3 (June 2021), baseline 30 mm",18 mm
same,New Lesions,[2]; [11],No
same,"Percentage of overall tumor reduction, from baseline",[2]; [11],−30% from baseline
same,"Percentage of overall tumor reduction, from nadir",[2]; [11],+24% from nadir
same,Tumor Response by RECIST 1.1,[2]; [11],Partial Response
same,Lymph Node,[2]; [12],10 mm
same,Target Lesions,[2]; [12],11 mm
same,Target Lesions Sum,"[2]; subject #2, Follow-up 4 (July 2021), baseline 30 mm",21 mm
same,New Lesions,[2]; [13],No
same,"Percentage of overall tumor reduction, from baseline",[2]; [13],−30% from baseline
same,"Percentage of overall tumor reduction, from nadir",[2]; [13],+24% from nadir
same,Tumor Response by RECIST 1.1,[2]; [13],Progressive Disease
same,Lymph Node,[2]; [14],10 mm
same,Target Lesions,[2]; [14],11 mm
same,Target Lesions Sum,"[2]; subject #2, Follow-up 5 (August 2021), baseline 30 mm",21 mm
same,peritoneum imaging result (FIG. 3),"[2]; subject #3, 5th restaging (November 2021) vs baseline (April 2021)",complete response
same,best response,"[2]; subject #3, start 300 mg QD",Unconfirmed Complete Response
same,reduction overall,"[2]; subject #3, start 300 mg QD",100%
same,time on the study drug until clinical disease progression,"[2]; subject #3, start 300 mg QD",252 days
same,Target Lesions,"[2]; subject #3, start 300 mg QD, Follow-up 1 (May 2021), baseline 36.6 mm",21.7 mm
same,New Lesions,[2]; [15],No
same,Percentage of overall tumor reduction,[2]; [15],−32%
same,Tumor Response by RECIST 1.1,[2]; [15],Partial Response
same,Peritoneum,[2]; [15],15.3 mm
same,Target Lesions Sum,"[2]; subject #3, Follow-up 1 (May 2021), baseline 54.4 mm",37 mm
same,New Lesions,[2]; [16],No
same,Percentage of overall tumor reduction,[2]; [16],−67.8%
same,Tumor Response by RECIST 1.1,[2]; [16],Partial Response
same,Peritoneum,"[2]; subject #3, Follow-up 2 (July 2021), (too small)",5 mm (too small)
same,Target Lesions,"[2]; subject #3, Follow-up 2 (July 2021), baseline 36.6 mm",12.5 mm
same,Target Lesions Sum,"[2]; subject #3, Follow-up 2 (July 2021), baseline 54.4 mm",17.5 mm
same,New Lesions,[2]; [17],No
same,Percentage of overall tumor reduction,[2]; [17],−76.5%
same,Tumor Response by RECIST 1.1,[2]; [17],Partial Response
same,Peritoneum,"[2]; subject #3, Follow-up 3 (August 2021), (too small)",5 mm (too small)
same,Target Lesions,"[2]; subject #3, Follow-up 3 (August 2021), baseline 36.6 mm",7.8 mm
same,Target Lesions Sum,"[2]; subject #3, Follow-up 3 (August 2021), baseline 54.4 mm",12.8 mm
same,New Lesions,[2]; [18],No
same,Percentage of overall tumor reduction,[2]; [18],−82%
same,Tumor Response by RECIST 1.1,[2]; [18],Partial Response
same,Peritoneum,"[2]; subject #3, Follow-up 4 (September 2021), (too small)",5 mm (too small)
same,Target Lesions,"[2]; subject #3, Follow-up 4 (September 2021), baseline 36.6 mm, (too small)",5 mm (too small)
same,Target Lesions Sum,"[2]; subject #3, Follow-up 4 (September 2021), baseline 54.4 mm",10 mm
same,New Lesions,[2]; [19],No
same,Percentage of overall tumor reduction,[2]; [19],−100%
same,Tumor Response by RECIST 1.1,[2]; [19],Complete Response
same,Peritoneum,[2]; [19],0 mm
same,Target Lesions,"[2]; subject #3, Follow-up 5 (November 2021), baseline 36.6 mm",0 mm
same,Target Lesions Sum,"[2]; subject #3, Follow-up 5 (November 2021), baseline 54.4 mm",0 mm
same,clinical activity,"[2]; subjects with recurrent or advanced USC, Examples 1-3",demonstrated clinical activity
